{
  "source": "paper PMC3503319",
  "about": "(Biochemistry, 2010)",
  "molecular_target": "Mtb DTBS (BioD) (Mycobacterium tuberculosis, UniProt P9WPQ5)",
  "sequence (P9WPQ5 whole entry)": "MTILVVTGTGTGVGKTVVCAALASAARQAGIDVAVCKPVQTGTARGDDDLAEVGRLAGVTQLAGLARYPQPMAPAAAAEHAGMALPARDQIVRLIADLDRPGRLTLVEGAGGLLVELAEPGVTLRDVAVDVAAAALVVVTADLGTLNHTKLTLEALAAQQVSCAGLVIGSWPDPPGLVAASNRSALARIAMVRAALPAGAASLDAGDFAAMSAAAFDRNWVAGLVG",
  "data": [
    {"smiles": "C[C@H](N)[C@@H](CCCCCC(=O)O)NC(=O)O", "note": "[DAPA-carbamate]", "values": [
      {"measurement": "X-ray crystal structure, 2.05 Å (crystal soaked in 10 mM DAPA)", "value": "additional electron density attached to the N7 atom of DAPA that fits the carbon dioxide"}
    ]}
  ]
}
